Results taken from ChEMBL document CHEMBL5149985, “Discovery of cytotoxic natural products from Red Sea sponges: Structure and synthesis” (Eur J Med Chem, 2021).
pIC50: −log10 of the molar value. One block for each compound: values may come before it.

Tests used:
MDA-MB-231 [1] = assay: Anticancer activity against human MDA-MB-231 cells assessed as cell viability measured after 24 hrs by MTT assay; assay type: functional, cell-based; details: MDA-MB-231, 24 h
HeLa [2] = assay: Antiproliferative activity against human HeLa cells assessed as cell viability measured after 24 hrs by MTT assay; assay type: functional, cell-based
HCT-116 = assay: Antiproliferative activity against human HCT-116 cells assessed as cell viability measured after 24 hrs by MTT assay; assay type: functional, cell-based; details: HCT-116, 24 h
P388 [3] = assay: Anticancer activity against mouse P388 cells assessed as inhibition of cell growth by dilution assay; assay type: functional, cell-based
A549 [4] = assay: Anticancer activity against human A549 cells assessed as inhibition of cell growth by dilution assay; assay type: functional, cell-based
HT-29 [5] = assay: Anticancer activity against human HT-29 cells assessed as inhibition of cell growth by dilution assay; assay type: functional, cell-based
MCF7 [6] = assay: Anticancer activity against human MCF7 cells assessed as inhibition of cell growth incubated for 24 hrs by MTT assay; assay type: functional, cell-based; details: MCF7, 24 h
A549 [7] = assay: Anticancer activity against human A549 cells assessed as inhibition of cell growth incubated for 24 hrs by MTT assay; assay type: functional, cell-based; details: A549, 24 h
HeLa [8] = assay: Anticancer activity against human HeLa cells assessed as inhibition of cell growth incubated for 24 hrs by MTT assay; assay type: functional, cell-based
A549 [9] = assay: cells; details: Homo sapiens, A549, 72 h
Description: Anticancer activity against human A549 cells assessed as inhibition of cell growth measured after 72 hrs by SRB assay

MDA-MB-231 [10] = assay: cells; details: Homo sapiens, MDA-MB-231, 72 h
Description: Anticancer activity against human MDA-MB-231 cells assessed as inhibition of cell growth measured after 72 hrs by SRB assay

HT-29 [11] = assay: cells; details: Homo sapiens, HT-29, 72 h
Description: Anticancer activity against human HT-29 cells assessed as inhibition of cell growth measured after 72 hrs by SRB assay

A549 [12] = assay: Anticancer activity against human A549 cells assessed as cell growth inhibition; assay type: functional, cell-based
MCF7 [13] = assay: Anticancer activity against human MCF7 cells assessed as inhibition of cell growth; assay type: functional, cell-based
PC-3 = assay: Anticancer activity against human PC-3 cells assessed as inhibition of cell growth; assay type: functional, cell-based
MDA-MB-231 [14] = assay: Antiproliferative activity against human MDA-MB-231 cells assessed as cell growth inhibition incubated for 72 hrs by SRB assay; assay type: functional, cell-based; details: MDA-MB-231, 72 h
A549 [15] = assay: Antiproliferative activity against human A549 cells assessed as cell growth inhibition incubated for 72 hrs by SRB assay; assay type: functional, cell-based; details: A549, 72 h
HT-29 [16] = assay: Antiproliferative activity against human HT-29 cells assessed as cell growth inhibition incubated for 72 hrs by SRB assay; assay type: functional, cell-based; details: HT-29, 72 h
HT-29 [17] = assay: Anticancer activity against human HT-29 cells assessed as cell growth inhibition by crystal violet staining based assay; assay type: functional
OVCAR-3 = assay: Anticancer activity against human OVCAR-3 cells assessed as cell growth inhibition by crystal violet staining based assay; assay type: functional
MM1.S = assay: Anticancer activity against human MM1.S cells assessed as cell growth inhibition by MTT assay; assay type: functional, cell-based
P388 [18] = assay: Anticancer activity against mouse P388 cells assessed as inhibition of cell growth; assay type: functional, cell-based
HepG2 = assay: Anticancer activity against human HepG2 cells assessed as inhibition of cell growth incubated for 48 hrs by crystal violet staining based microplate reader analysis; assay type: functional; details: HepG2, 48 h
L5178Y [19] = assay: Anticancer activity against mouse L5178Y assessed as cell growth inhibition by [3H]-thymidine assay; assay type: functional, cell-based
L5178Y [20] = assay: Anticancer activity against mouse L5178Y assessed as cell growth inhibition by [3H]-thymidine assay relative to control; assay type: functional
HeLa [21] = assay: Anticancer activity against human HeLa cells assessed as inhibition of cell growth; assay type: functional, cell-based
Daoy = assay: Anticancer activity against human Daoy cells assessed as inhibition of cell growth; assay type: functional, cell-based
A549 [22] = assay: Anticancer activity against human A549 cells assessed as inhibition of cell growth; assay type: functional, cell-based
HT-29 [23] = assay: Anticancer activity against human HT-29 cells assessed as inhibition of cell growth; assay type: functional, cell-based
P388 [24] = assay: Anticancer activity against mouse P388 cells assessed as cell growth inhibition; assay type: functional, cell-based
HT-29 [25] = assay: Anticancer activity against human HT-29 cells assessed as cell growth inhibition; assay type: functional, cell-based
SK-MEL-28 = assay: Anticancer activity against human MEL-28 cells assessed as cell growth inhibition; assay type: functional, cell-based

SMILES: COC1=C(Br)C[C@]2(OC=C1Br)ON=C(C(=O)NCCCOc1c(Br)cc(CCN)cc1Br)[C@@H]2O [PSAMMAPLYSIN A]
pIC50 (MDA-MB-231 [1]): 5.41
pIC50 (HeLa [2]): 5.07
pIC50 (HCT-116): 5.07

SMILES: C=C1CCC[C@@H]2[C@@](C)(CC[C@@]3(C)CC[C@@H]([C@H](C)C(=O)O)OO3)[C@H](C)CC[C@@]12C
pIC50 (A549 [12]): 4.62
pIC50 (MCF7 [13]): 4.44
pIC50 (PC-3): 4.36

SMILES: COc1ccc2[nH]c3c(-c4c[nH]c5cc(O)ccc45)ncc(C(=O)O)c3c2c1
pIC50 (MDA-MB-231 [14]): 4.05
pIC50 (A549 [15]): 4.00
pIC50 (HT-29 [16]): 4.07

SMILES: COC(=O)c1c[nH]c2ccc(O)cc12
pIC50 (L5178Y [19]): 7.28
inhibition (INH) (L5178Y [20]): 36%

SMILES: O=C(O)CCCCCC#C/C=C/CCCCC#C/C=C/Br
pIC50 (HeLa [21]): 7.06
pIC50 (Daoy): 7.18

SMILES: O=Cc1c[nH]c2ccccc12 [3-FORMYLINDOLE]
pIC50 (L5178Y [19]): 7.16
inhibition (INH) (L5178Y [20]): 53%

SMILES: C=C(CCC1=C(C)CCCC1(C)C)C(O)CC[C@@]1(C)CC[C@H]([C@@H](C)C(=O)O)OO1 (stereo partly specified)
pIC50 (A549 [22]): < 8.62
pIC50 (P388 [18]): < 8.62
pIC50 (HT-29 [23]): < 8.62

SMILES: NC(=O)c1cnc(-c2c[nH]c3cc(O)ccc23)c2[nH]c3ccc(O)cc3c12
pIC50 (MDA-MB-231 [14]): 4.38
pIC50 (A549 [15]): 4.46
pIC50 (HT-29 [16]): 4.35

SMILES: O=C1Nc2ccc(Br)cc2[C@@]1(c1cc2ccccc2[nH]1)c1c[nH]c2ccccc12
pIC50 (HT-29 [17]): 5.10
pIC50 (OVCAR-3): 5.15
pIC50 (MM1.S): 5.05

SMILES: COc1cccc2c1C(=O)c1c(O)c3c(c(O)c1C2=O)C[C@@](O)(C(=O)CO)C[C@@H]3O[C@H]1C[C@H](N)[C@H](O)[C@H](C)O1 [DOXORUBICIN]
pIC50 (A549 [9]): 6.46
pIC50 (MDA-MB-231 [10]): 6.52
pIC50 (HT-29 [11]): 6.40

SMILES: C=C1CCC[C@@H]2[C@@](C)(CC[C@@]3(C)CCn4cnc5ncnc(c54)N3O)[C@H](C)CC[C@@]12C
pIC50 (P388 [24]): 5.93
pIC50 (A549 [12]): 5.93
pIC50 (HT-29 [25]): 5.93
pIC50 (SK-MEL-28): 5.93

Results, then the compound that gave them:

pIC50 (P388 [3]): 8.66
pIC50 (A549 [4]): 8.66
pIC50 (HT-29 [5]): < 8.66
SMILES: CC(=O)O[C@@H]1c2occc2[C@@H](O)C[C@H]2[C@]3(C)CC[C@H]4C(C)(C)CCC[C@]4(C)[C@H]3C[C@@]21C [SALMAHYRTISOL A]

pIC50 (MCF7 [6]): 4.71
pIC50 (A549 [7]): 4.52
pIC50 (HeLa [8]): 5.39
SMILES: C#C/C=C\CCCCCCCCC#CCCC(=O)NCCc1ccccc1

pIC50 (A549 [9]): 4.54
pIC50 (MDA-MB-231 [10]): 4.54
pIC50 (HT-29 [11]): 4.52
SMILES: CC[C@H](C)[C@@H]1NC(=O)[C@@H](C(O)C(C)C)NC(=O)[C@H](Cc2ccc(O)cc2)NC(=O)[C@H]([C@H](C)O)NC(=O)[C@@H](C)NC(=O)[C@H](CC(C)C)NC(=O)[C@H](Cc2ccc(O)cc2)NC(=O)[C@H](Cc2ccccc2)NC1=O (stereo partly specified)

pIC50 (HT-29 [17]): 4.90
pIC50 (OVCAR-3): 5.05
pIC50 (MM1.S): 4.96
SMILES: O=C1Nc2cc(Br)ccc2[C@@]1(c1cc2ccccc2[nH]1)c1c[nH]c2ccccc12

pIC50 (MDA-MB-231 [1]): 4.71
pIC50 (HeLa [2]): 4.65
pIC50 (HCT-116): 5.09
SMILES: COC1=C(Br)C[C@@]2(OC=C1Br)ON=C(C(=O)NCCCOc1c(Br)cc(CCNC(N)=O)cc1Br)[C@H]2O

pIC50 (P388 [18]): < 8.40
SMILES: CO[C@@]1(C)CCC(C(C)C)=C[C@@H]2[C@H]1CC[C@]2(C)O

pIC50 (HepG2): 7.64
SMILES: CC(C)[C@]1(O)CC[C@@]2(C)C[C@](O)([C@H]3CC[C@@H]4[C@]3(C)CC[C@H]3OC(C)(C)[C@H](O)C(=O)[C@@H](O)[C@]43C)CC[C@@H]21

pIC50 (P388 [3]): 8.66
pIC50 (A549 [4]): 8.66
pIC50 (HT-29 [5]): < 8.66
SMILES: CC(=O)O[C@H]1CC[C@]2(C)[C@H]3C[C@@H](O)[C@]4(C)C5=C(CC[C@H]4[C@]3(C)CC[C@H]2C1(C)C)COC5=O
